Test [1] concerns the target T1, Kv1.3 (Homo sapiens, UniProt P22001). Nature of the test: whole-cell patch clamp, Kv1.[…] stably expressed in CHO cells. The test is classed as cell-based. On the technique in general: Patch clamp records ionic current or voltage across a cell membrane.
Test [2] addresses T1, Kv1.3. Nature of the test: whole-cell patch clamp of Kv1.[…] current in Jurkat lymphocytes, […] compound. As to conditions: read-out: % inhibition at 1 μM. The test is classed as cell-based.

T1 sequence (P22001 whole entry): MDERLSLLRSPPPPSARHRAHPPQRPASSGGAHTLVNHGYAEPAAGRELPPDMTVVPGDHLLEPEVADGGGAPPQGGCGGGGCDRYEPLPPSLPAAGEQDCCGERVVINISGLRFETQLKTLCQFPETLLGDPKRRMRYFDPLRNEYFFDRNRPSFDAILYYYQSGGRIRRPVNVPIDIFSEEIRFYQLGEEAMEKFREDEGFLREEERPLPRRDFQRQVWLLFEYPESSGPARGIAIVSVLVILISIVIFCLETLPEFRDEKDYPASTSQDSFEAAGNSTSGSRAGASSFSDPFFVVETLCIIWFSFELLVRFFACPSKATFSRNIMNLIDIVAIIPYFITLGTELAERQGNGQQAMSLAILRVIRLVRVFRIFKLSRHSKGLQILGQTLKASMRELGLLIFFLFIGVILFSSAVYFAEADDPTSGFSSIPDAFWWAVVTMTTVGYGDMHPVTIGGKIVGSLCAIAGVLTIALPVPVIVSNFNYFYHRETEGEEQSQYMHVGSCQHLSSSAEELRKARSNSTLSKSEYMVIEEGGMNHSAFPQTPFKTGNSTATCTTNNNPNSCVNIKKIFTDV

Regarding `COCCOCCOCCOCCOCCOCCOc1ccc(OCCCCOc2c3ccoc3cc3oc(=O)ccc23)cc1` [PAP-1-MHEG, 4-(4-(4-(2,5,8,11,14,17-hexaoxanonadecan-19-yloxy)phenoxy)butoxy)-7H-furo[3,2-g]chromen-7-one], on Kv1.3 [1], a half-maximal response (EC50) required 0.35 ± 0.03 µM.

On to `CCCCCOc1ccc(OCCOCCOCCOCCOCCOCCOC)cc1` [POP-MHEG, 19-(4-(pentyloxy)phenoxy)-2,5,8,11,14,17-hexaoxanonadecane], for which the inhibition (commonly how much of the control response was suppressed) at 1 µM on Kv1.3 [2] is ~70%.

Values taken from article PMC7527709 (Redox Biology, 2020).
